Assay results published in patent US20220054513A1, “COMBINATION COMPOSITIONS COMPRISING A BETA-LACTAMASE INHIBITOR” (VenatoRx Pharmaceuticals, Inc., priority 2018, published 2022).
Read-outs that look alike come from different tables or passages of the source.

Experiments:
[1] = system: multi-drug resistant Acinetobacter baumannii; experiment: broth microdilution MIC of sulbactam, ampicillin, cefepime and combinations +/- Compound 1, panel of 51 Acinetobacter isolates
[2] = system: Acinetobacter baumannii-calcoaceticus species complex clinical isolates; experiment: MIC of triple combinations (Compound 1, sulbactam, meropenem or cefepime), 141 clinical isolates; type: cell-based; conditions: Acinetobacter, Cmpd 1 at 4 μg/mL in combinations, read-out: MIC
Excerpt: For a more comprehensive assessment of the ability of test compounds to potentiate sulbactam in triple combinations with β-lactams additional MIC assays were utilized.

CO/N=C(\C(=O)N[C@@H]1C(=O)N2C(C(=O)[O-])=C(C[N+]3(C)CCCC3)CS[C@H]12)c1csc(N)n1 [FEP, cefepime]
MIC50 [1]: 32 µg/mL
MIC90 [1]: 128 µg/mL
MIC ([1]; read-out: Minimum inhibitory concentration (MIC), strain 0273 (ADC-25, OXA-23, OXA-66)): 32 µg/mL
MIC ([1]; read-out: Minimum inhibitory concentration (MIC), strain 0274 (TEM-1D, ADC-25, OXA-66, OXA-72)): 32 µg/mL
MIC ([1]; read-out: Minimum inhibitory concentration (MIC), strain 0275 (TEM-1D, ADC-25, OXA-23, OXA-66)): 32 µg/mL
MIC ([1]; read-out: Minimum inhibitory concentration (MIC), strain 0276 (enzyme content ND)): 128 µg/mL
MIC ([1]; read-out: Minimum inhibitory concentration (MIC), strain 0277 (TEM-1B, OXA-65, OXA-24)): 128 µg/mL
MIC ([1]; read-out: Minimum inhibitory concentration (MIC), strain 0278 (TEM-1D, ADC-25, OXA-23, OXA-66)): 32 µg/mL
MIC ([1]; read-out: Minimum inhibitory concentration (MIC), strain 0279 (TEM-1D, ADC-25, OXA-23, OXA-66)): 32 µg/mL
MIC ([1]; read-out: Minimum inhibitory concentration (MIC), strain 0280 (TEM-1D, ADC-25, OXA-66)): 16 µg/mL
MIC ([1]; read-out: Minimum inhibitory concentration (MIC), strain 0281 (TEM-1D, ADC-25, OXA-82)): 16 µg/mL
MIC ([1]; read-out: Minimum inhibitory concentration (MIC), strain 0282 (TEM-1D, ADC-25, OXA-23, OXA-66)): 64 µg/mL
MIC ([1]; read-out: Minimum inhibitory concentration (MIC), strain 0283 (TEM-1D, ADC-25, OXA-23, OXA-66)): 16 µg/mL
MIC ([1]; read-out: Minimum inhibitory concentration (MIC), strain 0284 (TEM-1B, OXA-65, OXA-24)): 32 µg/mL
MIC ([1]; read-out: Minimum inhibitory concentration (MIC), strain 0285 (TEM-1B, OXA-65, OXA-24)): 32 µg/mL
MIC ([1]; read-out: Minimum inhibitory concentration (MIC), strain 0286 (ADC-25, OXA-66, OXA-24)): 32 µg/mL
MIC ([1]; read-out: Minimum inhibitory concentration (MIC), strain 0287 (ADC-25, OXA-66, OXA-72)): 32 µg/mL
MIC ([1]; read-out: Minimum inhibitory concentration (MIC), strain 0288 (ADC-25, OXA-23, OXA-66)): 128 µg/mL
MIC ([1]; read-out: Minimum inhibitory concentration (MIC), strain 0289 (ADC-25, OXA-66, OXA-72)): 32 µg/mL
MIC ([1]; read-out: Minimum inhibitory concentration (MIC), strain 0290 (TEM-1D, ADC-25, OXA-23, OXA-66)): 32 µg/mL
MIC ([1]; read-out: Minimum inhibitory concentration (MIC), strain 0291 (TEM-1D, ADC-25, OXA-23, OXA-66)): 8 µg/mL
MIC ([1]; read-out: Minimum inhibitory concentration (MIC), strain 0292 (OXA-66, OXA-72)): 32 µg/mL
MIC ([1]; read-out: Minimum inhibitory concentration (MIC), strain 0293 (OXA-66, OXA-72)): 16 µg/mL
MIC ([1]; read-out: Minimum inhibitory concentration (MIC), strain 0294 (TEM-1B, OXA-23, OXA-65)): 32 µg/mL
MIC ([1]; read-out: Minimum inhibitory concentration (MIC), strain 0295 (TEM-1D, ADC-25, OXA-23, OXA-66)): 32 µg/mL
MIC ([1]; read-out: Minimum inhibitory concentration (MIC), strain 0296 (ADC-25, OXA-23, OXA-223)): 64 µg/mL
MIC ([1]; read-out: Minimum inhibitory concentration (MIC), strain 0297 (ADC-25, OXA-23, OXA-66)): 32 µg/mL
MIC ([1]; read-out: Minimum inhibitory concentration (MIC), strain 0298 (TEM-1D, ADC-25, OXA-66, OXA-237)): 32 µg/mL
MIC ([1]; read-out: Minimum inhibitory concentration (MIC), strain 0299 (PER-7, OXA-23, OXA-203)): 128 µg/mL
MIC ([1]; read-out: Minimum inhibitory concentration (MIC), strain 0300 (ADC-25, OXA-66)): 16 µg/mL
MIC ([1]; read-out: Minimum inhibitory concentration (MIC), strain 0301 (ADC-25, OXA-66, OXA-72)): 128 µg/mL
MIC ([1]; read-out: Minimum inhibitory concentration (MIC), strain 0302 (OXA-23, OXA-82)): 16 µg/mL
MIC ([1]; read-out: Minimum inhibitory concentration (MIC), strain 0303 (ADC-25, OXA-23, OXA-66)): 16 µg/mL
MIC ([1]; read-out: Minimum inhibitory concentration (MIC), strain 0304 (ADC-25, OXA-66, OXA-72)): 32 µg/mL
MIC ([1]; read-out: Minimum inhibitory concentration (MIC), strain 0305 (TEM-1B, OXA-65, OXA-24)): 16 µg/mL
MIC ([1]; read-out: Minimum inhibitory concentration (MIC), strain 0306 (TEM-1B, OXA-65, OXA-24)): 128 µg/mL
MIC ([1]; read-out: Minimum inhibitory concentration (MIC), strain 0307 (ADC-25, OXA-66, OXA-237)): 32 µg/mL
MIC ([1]; read-out: Minimum inhibitory concentration (MIC), strain 0308 (TEM-1D, ADC-25, OXA-71)): 16 µg/mL
MIC ([1]; read-out: Minimum inhibitory concentration (MIC), strain 0309 (OXA-23, OXA-82)): 64 µg/mL
MIC ([1]; read-out: Minimum inhibitory concentration (MIC), strain 0310 (OXA-23, OXA-82)): 32 µg/mL
MIC ([1]; read-out: Minimum inhibitory concentration (MIC), strain 0311 (ADC-25, OXA-23, OXA-82)): 128 µg/mL
MIC ([1]; read-out: Minimum inhibitory concentration (MIC), strain 0312 (OXA-69)): 32 µg/mL
MIC ([1]; read-out: Minimum inhibitory concentration (MIC), strain 0313 (TEM-1D, OXA-23, OXA-69)): 64 µg/mL
MIC ([1]; read-out: Minimum inhibitory concentration (MIC), strain 157834 (enzyme content ND)): 16 µg/mL
MIC ([1]; read-out: Minimum inhibitory concentration (MIC), strain 157842 (enzyme content ND)): 4 µg/mL
MIC ([1]; read-out: Minimum inhibitory concentration (MIC), strain 157876 (enzyme content ND)): 8 µg/mL
MIC ([1]; read-out: Minimum inhibitory concentration (MIC), strain 157901 (enzyme content ND)): 16 µg/mL
MIC ([1]; read-out: Minimum inhibitory concentration (MIC), strain 161750 (enzyme content ND)): 128 µg/mL
MIC ([1]; read-out: Minimum inhibitory concentration (MIC), strain 161752 (enzyme content ND)): 16 µg/mL
MIC ([1]; read-out: Minimum inhibitory concentration (MIC), strain 161755 (enzyme content ND)): 8 µg/mL
MIC ([1]; read-out: Minimum inhibitory concentration (MIC), strain 161756 (enzyme content ND)): 8 µg/mL
MIC ([1]; read-out: Minimum inhibitory concentration (MIC), strain 161760 (enzyme content ND)): 32 µg/mL
MIC ([1]; read-out: Minimum inhibitory concentration (MIC), strain 161762 (enzyme content ND)): 8 µg/mL
MIC ([2]; strain 990089): 64 µg/mL
MIC ([2]; strain 993131): 64 µg/mL
MIC ([2]; strain 994180): 32 µg/mL
MIC ([2]; strain 996612): > 512 µg/mL
MIC ([2]; strain 996707): 64 µg/mL
MIC ([2]; strain 996869): 32 µg/mL
MIC ([2]; strain 997574): 16 µg/mL
MIC ([2]; strain 998532): 64 µg/mL
MIC ([2]; strain 998907): 8 µg/mL
MIC ([2]; strain 999306): 8 µg/mL
MIC ([2]; strain 1001611): 16 µg/mL
MIC ([2]; strain 1002208): 64 µg/mL
MIC ([2]; strain 1002247): > 512 µg/mL
MIC ([2]; strain 1002688): 64 µg/mL
MIC ([2]; strain 1002952): 64 µg/mL
MIC ([2]; strain 1003557): 64 µg/mL
MIC ([2]; strain 1003787): > 512 µg/mL
MIC ([2]; strain 1008510): 64 µg/mL
MIC ([2]; strain 1008730): 64 µg/mL
MIC ([2]; strain 1010245): 64 µg/mL
MIC ([2]; strain 1010331): > 512 µg/mL
MIC ([2]; strain 1010950): > 512 µg/mL
MIC ([2]; strain 1011959): 64 µg/mL
MIC ([2]; strain 1013022): 64 µg/mL
MIC ([2]; strain 1013035): 32 µg/mL
MIC ([2]; strain 1014143): 32 µg/mL
MIC ([2]; strain 1014646): 64 µg/mL
MIC ([2]; strain 1016836): 64 µg/mL
MIC ([2]; strain 1018109): 2 µg/mL
MIC ([2]; strain 1018801): > 512 µg/mL
MIC ([2]; strain 1023207): 32 µg/mL
MIC ([2]; strain 1024119): 32 µg/mL
MIC ([2]; strain 1024215): 32 µg/mL
MIC ([2]; strain 1027234): 64 µg/mL
MIC ([2]; strain 1027603): 64 µg/mL
MIC ([2]; strain 1027748): 32 µg/mL
MIC ([2]; strain 1028193): 32 µg/mL
MIC ([2]; strain 1029913): 32 µg/mL
MIC ([2]; strain 1030427): 32 µg/mL
MIC ([2]; strain 1030928): > 512 µg/mL
MIC ([2]; strain 1031191): 64 µg/mL
MIC ([2]; strain 1032669): 64 µg/mL
MIC ([2]; strain 1034880): 64 µg/mL
MIC ([2]; strain 1034912): 64 µg/mL
MIC ([2]; strain 1034925): 64 µg/mL
MIC ([2]; strain 1035788): 32 µg/mL
MIC ([2]; strain 1035794): 16 µg/mL
MIC ([2]; strain 1035825): 64 µg/mL
MIC ([2]; strain 1036045): 64 µg/mL
MIC ([2]; strain 1036068): 64 µg/mL
MIC ([2]; strain 1036768): > 512 µg/mL
MIC ([2]; strain 1036781): 32 µg/mL
MIC ([2]; strain 1036882): 16 µg/mL
MIC ([2]; strain 1036921): 32 µg/mL
MIC ([2]; strain 1037193): 32 µg/mL
MIC ([2]; strain 1037256): 32 µg/mL
MIC ([2]; strain 1037479): > 512 µg/mL
MIC ([2]; strain 1037714): 4 µg/mL
MIC ([2]; strain 1037732): 32 µg/mL
MIC ([2]; strain 1037738): 32 µg/mL
MIC ([2]; strain 1037747): > 512 µg/mL
MIC ([2]; strain 1039502): > 512 µg/mL
MIC ([2]; strain 1039515): 64 µg/mL
MIC ([2]; strain 1039518): 64 µg/mL
MIC ([2]; strain 1040900): 64 µg/mL
MIC ([2]; strain 1040917): > 512 µg/mL
MIC ([2]; strain 1042182): 32 µg/mL
